Read-outs that look alike come from different tables or passages of the source.
Tests used:
clinical = conditions: human, in vivo
[1] = human, in vivo; for AUC/Dose / CL / Cmax/Dose / Vss: iv

CC(=O)O[C@@]12CO[C@@H]1C[C@H](O)[C@@]1(C)C(=O)[C@H](O)C3=C(C)[C@@H](OC(=O)[C@H](OC(=O)CN4CCN(C)CC4)[C@@H](NC(=O)OC(C)(C)C)c4ccccc4)C[C@@](O)([C@@H](OC(=O)c4ccccc4)[C@H]21)C3(C)C [TD-1]
half-life (clinical; average t1/2 for TD-1): ~51 h | AUC(0-inf) (clinical; iv, 3 mg/m2): 103 µg·h/mL | Cmax (clinical; iv, 3 mg/m2): 1.52 µg/mL | half-life (clinical; iv, 3 mg/m2, t1/2): 48.8 h | AUC(0-inf) (clinical; iv, 6 mg/m2): 252 µg·h/mL | Cmax (clinical; iv, 6 mg/m2): 3.15 µg/mL | half-life (clinical; iv, 6 mg/m2, t1/2): 57.6 h | AUC(0-inf) (clinical; iv, 12 mg/m2): 457 µg·h/mL | Cmax (clinical; iv, 12 mg/m2): 6.48 µg/mL | half-life (clinical; iv, 12 mg/m2, t1/2): 44 h | AUC(0-inf) (clinical; iv, 24 mg/m2): 955 µg·h/mL | Cmax (clinical; iv, 24 mg/m2): 13.7 µg/mL | half-life (clinical; iv, 24 mg/m2, t1/2): 43.8 h | AUC(0-inf) (clinical; iv, 48 mg/m2): 2660 µg·h/mL | Cmax (clinical; iv, 48 mg/m2): 30.7 µg/mL | half-life (clinical; iv, 48 mg/m2, t1/2): 59.3 h | AUC(0-inf) (clinical; iv, 80 mg/m2): 2390 µg·h/mL | Cmax (clinical; iv, 80 mg/m2): 43.4 µg/mL | half-life (clinical; iv, 80 mg/m2, t1/2): 26.7 h | AUC(0-inf) (clinical; iv, 120 mg/m2): 6280 µg·h/mL | Cmax (clinical; iv, 120 mg/m2): 68.8 µg/mL | half-life (clinical; iv, 120 mg/m2, t1/2): 48.3 h | AUC(0-inf) (clinical; iv, 160 mg/m2): 9440 µg·h/mL | Cmax (clinical; iv, 160 mg/m2): 98.5 µg/mL | half-life (clinical; iv, 160 mg/m2, t1/2): 66.1 h | AUC(0-inf) (clinical; iv, 190 mg/m2): 9810 µg·h/mL | Cmax (clinical; iv, 190 mg/m2): 143 µg/mL | half-life (clinical; iv, 190 mg/m2, t1/2): 53 h | AUC(0-inf) (clinical; iv, 225 mg/m2): 13200 µg·h/mL | Cmax (clinical; iv, 225 mg/m2): 149 µg/mL | half-life (clinical; iv, 225 mg/m2, t1/2): 54.5 h | AUC(0-inf) (clinical; iv, 270 mg/m2): 8370 µg·h/mL | Cmax (clinical; iv, 270 mg/m2): 150 µg/mL | half-life (clinical; iv, 270 mg/m2, t1/2): 35.6 h | AUC(0-inf) (clinical; iv, 320 mg/m2): 13000 µg·h/mL | Cmax (clinical; iv, 320 mg/m2): 205 µg/mL | half-life (clinical; iv, 320 mg/m2, t1/2): 43.7 h | AUC(0-inf) (clinical; iv, 380 mg/m2): 34100 µg·h/mL | Cmax (clinical; iv, 380 mg/m2): 310 µg/mL | half-life (clinical; iv, 380 mg/m2, t1/2): 84.4 h | half-life (clinical; t1/2 (mean)): ~50 h | CL (mean) [1]: 0.025 L/h/m^2 | Cmax and AUC with respect to dose [1]: remained linear with respect to dose | Vss (mean) [1]: 1.422 L/m^2 | dose proportionality for Cmax and AUCinf [1]: demonstrate dose proportionality | AUC/Dose ([1]; 12 mg/m2): 38106 m^2 · ng · h/ml/mg | CL ([1]; 12 mg/m2): 0.0283 l/h/m^2 | Cmax/Dose ([1]; 12 mg/m2): 539.6 m^2 · ng/ml/mg | Vss ([1]; 12 mg/m2): 1.46 l/m^2 | AUC/Dose ([1]; 48 mg/m2): 55469 m^2 · ng · h/ml/mg | CL ([1]; 48 mg/m2): 0.0186 l/h/m^2 | Cmax/Dose ([1]; 48 mg/m2): 640.3 m^2 · ng/ml/mg | Vss ([1]; 48 mg/m2): 1.40 l/m^2 | AUC/Dose ([1]; 120 mg/m2): 52326 m^2 · ng · h/ml/mg | CL ([1]; 120 mg/m2): 0.0202 l/h/m^2 | Cmax/Dose ([1]; 120 mg/m2): 573.6 m^2 · ng/ml/mg | Vss ([1]; 120 mg/m2): 0.090 l/m^2 | AUC/Dose ([1]; 225 mg/m2): 58571 m^2 · ng · h/ml/mg | CL ([1]; 225 mg/m2): 0.0184 l/h/m^2 | Cmax/Dose ([1]; 225 mg/m2): 662.2 m^2 · ng/ml/mg | Vss ([1]; 225 mg/m2): 1.08 l/m^2 | AUC/Dose ([1]; 320 mg/m2): 405478 m^2 · ng · h/ml/mg | CL ([1]; 320 mg/m2): 0.0260 l/h/m^2 | Cmax/Dose ([1]; 320 mg/m2): 640.6 m^2 · ng/ml/mg | Vss ([1]; 320 mg/m2): 1.58 l/m^2

Source: US20160250177A1, “MODIFIED DOCETAXEL LIPOSOME FORMULATIONS AND USES THEREOF” (MALLINCKRODT LLC, priority 2015, published 2016)
